# Reference: patent US11174268B2, “Benzenesulfonamide compouds and their use as therapeutic agents” (Xenon Pharmaceuticals Inc., priority 2016, dated 2021)
# Structures can show the parent of a compound that is named as a salt. Where two headings read alike, the source gives them in different places.
# Experiments:
# NaV1.6 = NaV1.6 (Homo sapiens (Human), UniProt Q9UQD0); test: Sodium Influx Assay (Flux), NaV1.6; type: cell-based; conditions: Trex HEK293 cells, ANG2 dye, inactivated state;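 also: Tetracycline-induced cells, compounds applied for one hour at room temperature with modulators holding channels open, IC50 from percent inhibition of sodium influx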
# NaV1.1 = NaV1.1 (Homo sapiens (Human), UniProt P35498); test: Sodium Influx Assay (Flux), NaV1.1; type: cell-based; conditions: Trex HEK293 cells, ANG2 dye, inactivated state;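 also: channels co-expressed with human β1 subunit and held open by modulators, cells exposed to compounds for one hour at room temperature, IC50 from percent inhibition of influx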
# NaV1.5 = NaV1.5 (Homo sapiens (Human), UniProt Q14524); test: Sodium Influx Assay (Flux), NaV1.5
# Sequence of NaV1.5 (Q14524 other isoform, or with tags, fused parts or gaps): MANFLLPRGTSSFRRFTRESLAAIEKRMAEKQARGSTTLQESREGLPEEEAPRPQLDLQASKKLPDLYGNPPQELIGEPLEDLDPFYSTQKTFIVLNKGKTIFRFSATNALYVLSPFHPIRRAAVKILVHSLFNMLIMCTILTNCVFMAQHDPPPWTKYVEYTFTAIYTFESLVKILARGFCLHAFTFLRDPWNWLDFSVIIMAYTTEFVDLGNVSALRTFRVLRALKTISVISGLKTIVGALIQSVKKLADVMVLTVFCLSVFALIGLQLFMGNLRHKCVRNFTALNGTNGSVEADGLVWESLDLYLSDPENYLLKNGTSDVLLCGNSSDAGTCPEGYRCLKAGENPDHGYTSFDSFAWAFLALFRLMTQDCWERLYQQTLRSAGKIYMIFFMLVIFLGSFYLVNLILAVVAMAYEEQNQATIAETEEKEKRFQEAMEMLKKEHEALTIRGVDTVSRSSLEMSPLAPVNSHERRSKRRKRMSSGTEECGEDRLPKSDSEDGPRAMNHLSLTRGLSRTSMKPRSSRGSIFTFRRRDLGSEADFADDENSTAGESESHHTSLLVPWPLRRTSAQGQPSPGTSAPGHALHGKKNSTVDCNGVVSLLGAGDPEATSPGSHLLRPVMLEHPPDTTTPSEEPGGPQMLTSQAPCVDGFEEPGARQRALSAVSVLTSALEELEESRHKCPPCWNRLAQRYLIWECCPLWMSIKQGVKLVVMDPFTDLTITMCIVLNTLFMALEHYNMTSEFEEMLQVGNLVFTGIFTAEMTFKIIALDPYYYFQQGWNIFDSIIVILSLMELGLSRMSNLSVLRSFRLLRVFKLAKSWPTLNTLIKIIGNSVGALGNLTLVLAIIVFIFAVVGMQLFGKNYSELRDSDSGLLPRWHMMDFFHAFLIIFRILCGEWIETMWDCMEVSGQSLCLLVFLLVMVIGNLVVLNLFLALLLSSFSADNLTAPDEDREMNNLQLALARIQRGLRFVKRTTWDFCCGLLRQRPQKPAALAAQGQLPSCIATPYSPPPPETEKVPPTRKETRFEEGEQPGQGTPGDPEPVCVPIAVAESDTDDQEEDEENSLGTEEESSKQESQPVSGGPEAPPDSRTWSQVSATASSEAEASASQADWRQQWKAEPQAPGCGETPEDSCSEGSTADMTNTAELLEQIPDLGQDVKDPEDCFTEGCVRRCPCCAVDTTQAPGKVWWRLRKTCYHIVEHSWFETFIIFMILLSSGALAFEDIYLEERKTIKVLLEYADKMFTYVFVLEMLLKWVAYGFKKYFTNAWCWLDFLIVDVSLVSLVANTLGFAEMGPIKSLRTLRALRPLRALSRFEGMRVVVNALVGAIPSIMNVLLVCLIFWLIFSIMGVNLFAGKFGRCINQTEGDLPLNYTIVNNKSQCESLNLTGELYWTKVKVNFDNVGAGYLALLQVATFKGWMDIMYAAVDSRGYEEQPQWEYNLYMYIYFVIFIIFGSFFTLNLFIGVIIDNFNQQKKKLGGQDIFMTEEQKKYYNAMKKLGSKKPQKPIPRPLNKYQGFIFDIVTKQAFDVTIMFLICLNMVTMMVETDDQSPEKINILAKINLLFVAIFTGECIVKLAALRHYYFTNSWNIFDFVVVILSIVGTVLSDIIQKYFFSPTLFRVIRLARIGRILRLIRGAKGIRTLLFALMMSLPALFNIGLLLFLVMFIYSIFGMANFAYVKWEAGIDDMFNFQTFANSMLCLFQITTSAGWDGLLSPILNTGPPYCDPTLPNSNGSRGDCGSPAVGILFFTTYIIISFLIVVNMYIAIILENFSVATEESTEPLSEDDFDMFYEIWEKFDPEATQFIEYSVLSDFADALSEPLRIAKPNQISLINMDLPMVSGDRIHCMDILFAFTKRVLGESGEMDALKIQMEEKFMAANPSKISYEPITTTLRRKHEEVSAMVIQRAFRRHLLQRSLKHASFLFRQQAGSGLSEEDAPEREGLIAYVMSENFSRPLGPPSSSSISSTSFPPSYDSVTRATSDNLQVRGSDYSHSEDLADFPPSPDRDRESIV
# [1] = read-out: Flux NaV1.5 IC50, Trex HEK293 cells, ANG2 dye, inactivated state
Structure (SMILES),IC50 (NaV1.6) [µM],IC50 (NaV1.1) [µM],IC50 (NaV1.5; [1]) [µM],IC50 (NaV1.5) [µM]
"C[C@H](Oc1cc(F)c(S(=O)(=O)Nc2nccs2)cc1Cl)c1ccc(Cl)c(Cl)c1 [Example 108, (S)-5-chloro-4-(1-(3,4-dichlorophenyl)ethoxy)-2-fluoro-N-(thiazol-2-yl)benzenesulfonamide]",14.5,21.1,22.4,
"C[C@H](Oc1cc(F)c(S(=O)(=O)Nc2cscn2)cc1Cl)c1cccc(F)c1 [Example 118, (S)-5-chloro-2-fluoro-4-(1-(3-fluorophenyl)ethoxy)-N-(thiazol-4-yl)benzenesulfonamide]",3.18,15.9,7.5,
"C[C@@H](Oc1cc(F)c(S(=O)(=O)Nc2nccs2)cc1Cl)c1ccccc1F [Example 121, (R)-5-chloro-2-fluoro-4-(1-(2-fluorophenyl)ethoxy)-N-(thiazol-2-yl)benzenesulfonamide]",2.32,3.38,2.15,
"C[C@H](Oc1cc(F)c(S(=O)(=O)Nc2cscn2)cc1Cl)c1cc(Cl)ccc1F [Example 124, (S)-5-chloro-4-(1-(5-chloro-2-fluorophenyl)ethoxy)-2-fluoro-N-(thiazol-4-yl)benzenesulfonamide]",1.84,15.9,1.87,
"C[C@H](Sc1cc(F)c(S(=O)(=O)Nc2nccs2)cc1Cl)c1ccccc1 [Example 125, (S)-5-chloro-2-fluoro-4-((1-phenylethyl)thio)-N-(thiazol-2-yl)benzenesulfonamide]",1.73,3.26,3.35,
"O=S(=O)(Nc1cscn1)c1cc(Cl)c(NCc2c(F)cccc2CN2CC3(CCC3)C2)cc1F [Example 128, 4-((2-((2-azaspiro[3.3]heptan-2-yl)methyl)-6-fluorobenzyl)amino)-5-chloro-2-fluoro-N-(thiazol-4-yl)benzenesulfonamide]",0.208,5.37,,6.72
"O=S(=O)(Nc1cscn1)c1cc(Cl)c(NCc2ccc(F)cc2CN2CCC2)cc1F [Example 132, 4-((2-(azetidin-1-ylmethyl)-4-fluorobenzyl)amino)-5-chloro-2-fluoro-N-(thiazol-4-yl)benzenesulfonamide]",5.11,7.87,24.7,
"C[C@H](Nc1cc(F)c(S(=O)(=O)Nc2cscn2)cc1Cl)c1cc(C2CC2)ccc1F [Example 146, (S)-5-chloro-4-((1-(5-cyclopropyl-2-fluorophenyl)ethyl)amino)-2-fluoro-N-(thiazol-4-yl)benzenesulfonamide]",4.12,5.57,9.84,
"Cc1ccc(F)cc1CNc1cc(F)c(S(=O)(=O)Nc2cscn2)cc1Cl [Example 147, 5-chloro-2-fluoro-4-((5-fluoro-2-methylbenzyl)amino)-N-(thiazol-4-yl)benzenesulfonamide]",3.31,3.43,2.72,
"O=S(=O)(Nc1cscn1)c1cc(Cl)c(OCc2c(F)ccc(F)c2CN2CCC2)cc1F [Example 150, 4-((2-(azetidin-1-ylmethyl)-3,6-difluorobenzyl)oxy)-5-chloro-2-fluoro-N-(thiazol-4-yl)benzenesulfonamide]",2.82,30,8.66,
"CN1CCN(Cc2cccc(F)c2CNc2cc(F)c(S(=O)(=O)Nc3cscn3)c(F)c2)CC1 [Example 151, 2,6-difluoro-4-((2-fluoro-6-((4-methylpiperazin-1-yl)methyl)-benzyl)amino)-N-(thiazol-4-yl)benzenesulfonamide formate]",2.1,20.5,30,
"O=S(=O)(Nc1cscn1)c1c(F)cc(NCc2c(F)cccc2CN2CCC3(CCO3)C2)cc1F (stereo not drawn) [Example 155, 4-((2-((1-oxa-6-azaspiro[3.4]octan-6-yl)methyl)-6-fluorobenzyl)amino)-2,6-difluoro-N-(thiazol-4-yl)benzenesulfonamide formate]",0.25,30,30,
"O=S(=O)(Nc1cscn1)c1c(F)cc(NCc2c(F)cccc2CN2CCC23COC3)cc1F [Example 157, 4-((2-((6-oxa-1-azaspiro[3.3]heptan-1-yl)methyl)-6-fluorobenzyl)amino)-2,6-difluoro-N-(thiazol-4-yl)benzenesulfonamide formate]",2.36,30,30,
"O=S(=O)(Nc1cscn1)c1c(F)cc(NCc2c(F)cccc2CN2CCC3(CCC3)C2)cc1F [Example 159, 4-((2-((6-azaspiro[3.4]octan-6-yl)methyl)-6-fluorobenzyl)amino)-2,6-difluoro-N-(thiazol-4-yl)benzenesulfonamide formate]",0.153,9.21,,11.8
"O=S(=O)(Nc1cscn1)c1c(F)cc(NCc2c(F)cccc2CN2CC3(C2)CC(F)(F)C3)cc1F [Example 160, 4-((2-((6,6-difluoro-2-azaspiro[3.3]heptan-2-yl)methyl)-6-fluorobenzyl)amino)-2,6-difluoro-N-(thiazol-4-yl)benzenesulfonamide formate]",0.064,6.51,,23
"O=S(=O)(Nc1cscn1)c1c(F)cc(NCc2c(F)cccc2CN2CC3(C2)CC3(F)F)cc1F [Example 163, 4-((2-((1,1-difluoro-5-azaspiro[2.3]hexan-5-yl)methyl)-6-fluorobenzyl)amino)-2,6-difluoro-N-(thiazol-4-yl)benzenesulfonamide]",0.288,6.35,30,

# Continued by falling IC50 (NaV1.6), values first:
IC50 (NaV1.6) [µM],IC50 (NaV1.1) [µM],Structure (SMILES),IC50 (NaV1.5; [1]) [µM],IC50 (NaV1.5) [µM]
1.25,2.95,"C[C@H](Nc1ccc(S(=O)(=O)Nc2cscn2)c(F)c1Cl)c1c(F)cccc1Cl [Example 148, (S)-3-chloro-4-((1-(2-chloro-6-fluorophenyl)ethyl)amino)-2-fluoro-N-(thiazol-4-yl)benzenesulfonamide]",4.84,
1.03,3.84,"CC(C)C[C@@H](Nc1cc(F)c(S(=O)(=O)Nc2nccs2)cc1Cl)c1ccccc1 [Example 110, (R)-5-chloro-2-fluoro-4-((3-methyl-1-phenylbutyl)amino)-N-(thiazol-2-yl)benzenesulfonamide]",3.15,
0.78,3.36,"C[C@H](Nc1ccc(S(=O)(=O)Nc2cscn2)c(F)c1Cl)c1c(F)cccc1F [Example 149, (S)-3-chloro-4-((1-(2,6-difluorophenyl)ethyl)amino)-2-fluoro-N-(thiazol-4-yl)benzenesulfonamide]",6.39,
0.467,30,"O=S(=O)(Nc1ncccn1)c1c(F)cc(NCc2c(F)cccc2CN2CCC2)cc1F [Example 145, 4-((2-(azetidin-1-ylmethyl)-6-fluorobenzyl)amino)-2,6-difluoro-N-(pyrimidin-2-yl)benzenesulfonamide 2,2,2-trifluoroacetate]",30,
0.461,30,"COCCN(C)Cc1cccc(F)c1CNc1cc(F)c(S(=O)(=O)Nc2cscn2)c(F)c1 [Example 162, 2,6-difluoro-4-((2-fluoro-6-(((2-methoxyethyl)(methyl)amino)methyl)benzyl)amino)-N-(thiazol-4-yl)benzenesulfonamide formate]",11,
0.451,28.8,"COC[C@H]1CCCN1Cc1cccc(F)c1CNc1cc(F)c(S(=O)(=O)Nc2cscn2)c(F)c1 [Example 154, (R)-2,6-difluoro-4-((2-fluoro-6-((2-(methoxymethyl)pyrrolidin-1-yl)methyl)benzyl)amino)-N-(thiazol-4-yl)benzenesulfonamide formate]",30,
0.405,≥ 30,"CN(Cc1cccc(F)c1CNc1cc(F)c(S(=O)(=O)Nc2cscn2)c(F)c1)CC1(C)COC1 [Example 167, 2,6-difluoro-4-((2-fluoro-6-((methyl((3-methyloxetan-3-yl)methyl)amino)methyl)benzyl)amino)-N-(thiazol-4-yl)benzenesulfonamide formate]",,≥ 30
0.361,14.9,"CN(C)Cc1cccc(F)c1CNc1cc(F)c(S(=O)(=O)Nc2cscn2)c(F)c1 [Example 165, 4-((2-((dimethylamino)methyl)-6-fluorobenzyl)amino)-2,6-difluoro-N-(thiazol-4-yl)benzenesulfonamide formate]",,20.8
0.352,1.39,"CCC[C@H](Nc1cc(F)c(S(=O)(=O)Nc2nccs2)cc1Cl)c1ccccc1 [Example 111, (S)-5-chloro-2-fluoro-4-((1-phenylbutyl)amino)-N-(thiazol-2-yl)benzenesulfonamide]",8.33,
0.214,1.11,"CC(C)C[C@H](Nc1cc(F)c(S(=O)(=O)Nc2nccs2)cc1Cl)c1ccccc1 [Example 109, (S)-5-chloro-2-fluoro-4-((3-methyl-1-phenylbutyl)amino)-N-(thiazol-2-yl)benzenesulfonamide]",7.86,
0.16,10.3,"CCOC1(C)CN(Cc2cccc(F)c2CNc2cc(F)c(S(=O)(=O)Nc3cscn3)c(F)c2)C1 [Example 152, 4-((2-((3-ethoxy-3-methylazetidin-1-yl)methyl)-6-fluorobenzyl)amino)-2,6-difluoro-N-(thiazol-4-yl)benzenesulfonamide formate]",19,
0.114,0.147,"CC[C@H](Nc1cc(F)c(S(=O)(=O)Nc2nccs2)cc1C)c1ccccc1 [Example 126, (S)-2-fluoro-5-methyl-4-((1-phenylpropyl)amino)-N-(thiazol-2-yl)benzenesulfonamide]",,11.4
0.084,22.8,"CC1CN(Cc2cccc(F)c2CNc2cc(F)c(S(=O)(=O)Nc3cscn3)c(F)c2)C1 [Example 164, 2,6-difluoro-4-((2-fluoro-6-((3-methylazetidin-1-yl)methyl)benzyl)amino)-N-(thiazol-4-yl)benzenesulfonamide formate]",20.3,
